Patent US20250319015A1, “VACCINIUM MACROCARPON EXTRACT AND ANTI-AGEING COSMETIC EFFECTS THEREOF” (SOCIETE INDUSTRIELLE LIMOUSINE D'APPLICATION BIOLOGIQUE, priority 2021, published 2025)

Experiments:
[1] = system: older human fibroblasts by successive replications; assay: Gene expression by quantitative PCR on older human fibroblasts; format: cell-based; settings: 1 μM Retinol
Description: The procedure of the study is described below. The young and older human cells are seeded and incubated at 37° C. […] After several days, the cells are recovered and the total RNA extracted. The RNAs were reverse-transcribed and the complementary DNAs obtained were analyzed by the quantitative PCR technique. The mRNAs of internal reference controls were analyzed in parallel with the mRNAs of the markers involved in the barrier function of the epidermis, in the DEJ and in the dermal matrix. The incorporation of fluorescence is measured continuously using a thermal cycler. The RQ (relative quantification) analysis is performed using software.

[2] = system: Ki-67; assay: Ki-67 synthesis in reconstructed epidermises (immunohistofluorescence); format: cell-based, human; settings: older reconstructed epidermises, 10 μM Retinol
Description: This study was carried out on normal and older reconstructed epidermises. The epidermal construction was evaluated using a Hematoxylin Eosin (HE) stain and the synthesis of the barrier function markers by immunohistofluorescence. The procedure of the study is described below. […] The epidermides are recovered, fixed, dehydrated, and enclosed in paraffin. Sections (4 μm) are then made using a microtome. […] Viewing is performed using a microscope coupled to an image analysis system. The thickness of the epidermises obtained was measured on the histological sections produced. The rate of the various synthesized markers is proportional to the intensity of green fluorescence present on the reconstructed epidermises. A quantitative analysis of the images was carried out using an image analysis script. The results are expressed in arbitrary units (AU).

[3] = system: MMP-1; assay: MMP-1 level by ELISA on older human fibroblasts subjected to UVA; format: cell-based; settings: UVA-irradiated older fibroblasts, 1 μM Retinol
Description: The older human fibroblasts are seeded and incubated at 37° C. in an atmosphere containing 5% CO2. The irradiations are carried out using a UV lamp with UVA intensities of 10 J/cm2.
(§1) The cells are then incubated at 37° C. in an atmosphere containing 5% CO2 for 48 hours.

[4] = system: hyaluronic acid; assay: Hyaluronic acid synthesis by ELISA on older human fibroblasts; format: cell-based; settings: 1 μM Retinol
Description: The older human fibroblasts are seeded and incubated at 37° C. in an atmosphere containing 5% CO2.
as §1

[5] = system: older reconstructed epidermises; assay: Thickness of reconstructed epidermises (hematoxylin eosin stain); format: cell-based, human; settings: 10 μM Retinol
Description: This study was carried out on normal and older reconstructed epidermises. The epidermal construction was evaluated using a Hematoxylin Eosin (HE) stain and the synthesis of the barrier function markers by immunohistofluorescence. The procedure of the study is described below. […] The epidermides are recovered, fixed, dehydrated, and enclosed in paraffin. Sections (4 μm) are then made using a microtome. The analysis of the thickness of the reconstructed epidermises is carried out by hematoxylin eosin (HE) stain. Viewing is performed using a microscope coupled to an image analysis system. The thickness of the epidermises obtained was measured on the histological sections produced.

Question: Which results are given for `CC1=C(/C=C/C(C)=C/C=C/C(C)=C/CO)C(C)(C)CCC1` [Retinol, retinol]?
Answer: ACAN: Efficacy of retinol/older control (%) [1]: −74%; AQP3: Efficacy of retinol/older control (%) [1]: +30%; BGN: Efficacy of retinol/older control (%) [1]: +24%; COL1A1: Efficacy of retinol/older control (%) [1]: +25%; COL3A1: Efficacy of retinol/older control (%) [1]: +67%; CXCL8: Efficacy of retinol/older control (%) [1]: +282%; DCN: Efficacy of retinol/older control (%) [1]: +7%; ELN: Efficacy of retinol/older control (%) [1]: +5%; FBN1: Efficacy of retinol/older control (%) [1]: −1%; HSPG2: Efficacy of retinol/older control (%) [1]: +3%; IL1: Efficacy of retinol/older control (%) [1]: +151%; LUM: Efficacy of retinol/older control (%) [1]: −3%; MMP1: Efficacy of retinol/older control (%) [1]: −24%; POSTN: Efficacy of retinol/older control (%) [1]: +24%; TGFβ1: Efficacy of retinol/older control (%) [1]: +8%; VEGFA: Efficacy of retinol/older control (%) [1]: +2%; ACAN expression (qPCR) ([1]; young cells control=100): 10; AQP3 expression (qPCR) ([1]; young cells control=100): 73; BGN expression (qPCR) ([1]; young cells control=100): 78; COL1A1 expression (qPCR) ([1]; young cells control=100): 79; COL3A1 expression (qPCR) ([1]; young cells control=100): 72; CXCL8 expression (qPCR) ([1]; young cells control=100): 803; DCN expression (qPCR) ([1]; young cells control=100): 89; ELN expression (qPCR) ([1]; young cells control=100): 63; FBN1 expression (qPCR) ([1]; young cells control=100): 90; HSPG2 expression (qPCR) ([1]; young cells control=100): 90; IL1 expression (qPCR) ([1]; young cells control=100): 567; LUM expression (qPCR) ([1]; young cells control=100): 87; MMP1 expression (qPCR) ([1]; young cells control=100): 164; POSTN expression (qPCR) ([1]; young cells control=100): 56; TGFβ1 expression (qPCR) ([1]; young cells control=100): 103; VEGFA expression (qPCR) ([1]; young cells control=100): 93; Ability to restore Ki-67 synthesis (%) [2]: +71%; Ki-67-positive cells (%) ([2]; 48 hours): 23%; Ability to reduce the MMP-1 level (%) [3]: +33%; MMP-1 content (ng/mg proteins) ([3]; 48 hours): 46 ng/mg proteins; Synthesis of hyaluronic acid (ng/mg proteins) ([4]; Older fibroblasts, 48 hours): 4112 ng/mg proteins; Content of hyaluronic acid/control (%) ([4]; older fibroblasts): +8%; Ability to restore the thickness of the epidermis (%) [5]: +94%; Measurement of the thickness of the epidermis (μm) ([5]; 48 hours): 59 μm
